# Experimental data as given in patent US20250353835A1, “N-TETRAZOLYL ARYL UREA-BASED DERIVATIVES, PREPARATION METHOD THEREFOR, AND USE THEREOF” (Hangzhou Yirui Pharmaceutical Technology Co., Ltd, priority 2022, published 2025).
# Biological target: T1, human B1R (Homo sapiens, UniProt P46663)
# T1 construct: host or cells: HEK293
# T1 sequence (P46663 1-353): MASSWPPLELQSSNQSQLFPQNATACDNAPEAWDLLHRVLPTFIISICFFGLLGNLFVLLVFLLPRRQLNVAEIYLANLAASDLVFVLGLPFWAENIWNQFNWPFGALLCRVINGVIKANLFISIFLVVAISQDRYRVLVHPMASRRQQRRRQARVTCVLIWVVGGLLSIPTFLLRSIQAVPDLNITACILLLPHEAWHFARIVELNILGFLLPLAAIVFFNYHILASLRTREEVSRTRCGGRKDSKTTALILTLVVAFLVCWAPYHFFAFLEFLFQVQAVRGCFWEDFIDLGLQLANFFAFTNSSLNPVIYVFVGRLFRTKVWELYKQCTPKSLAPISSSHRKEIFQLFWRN
# Test: FLIPR calcium ion flux assay, inhibitory activity against human B1R
# Type: cell-based
# Conditions: HEK293 cells stably expressing human B1R; agonist [Lys-des-Arg9]-Bradykinin 4.6 nM (EC80); FLIPR method
# Protocol: The inhibitory activity of the compounds against human B1R and B2R channels was determined by calcium ion flux assay using fluorometric imaging plate reader (FLIPR method). See literatures of Lee, Chen et al. for the method. [Lee et al. 2008][Chen et al. 2011]
# 1. Cell culture: HEK293 recombinant cell lines (WuXi AppTec, Shanghai, China) stably expressing human B1R and B2R were cultured in DMEM (Invitrogen, Cat #11965) medium containing 10% calf serum (Excellbio, Cat #FSP500), 5 μg/ml Geneticin (Invitrogen, Cat #10131) and Penicillin/Streptomycin (Invitrogen, Cat #15140). The incubator conditions were 37° C. and ambient humidity containing 5% CO2.
# 2. Preparation of the cell assay plate: B1R and B2R cells were seeded in a 384-well assay plate (Greiner, Cat #781090) at a density of 20,000 cells per well (20 μl/well), and cultured overnight at 37° C. in an incubator with 5% CO2. The next day, Fluo-4 Direct™ Loading Buffer (containing 5 mM Probenicid) containing 2× (8 μM) Fluo-4 Direct (Invitrogen, Cat #F10471) was added to each of the wells. The cells were cultured at 37° C. for 50 min, and then culture for at the room temperature 10 min.
# 3. Preparation of the compound assay plate: The compound was dissolved in 100% DMSO to make a 30 mM stock solution and stored at −20° C. On the day of use, the stock solution of the compound was thawed at the room temperature. Each of the compounds was serially diluted at 1:5 in DMSO culture medium with a starting concentration of 30 μM for 9 concentration points on a 384-well plate. Each of compounds was diluted in duplicate for testing. [Des-Arg10]-HOE140 was used as a positive control compound, and diluted in the same manner with a starting concentration of 3 μM.
# 4. FLIPR assay: The cell assay plate was placed in a FLIPR instrument ([…]). The compounds in the compound assay plate were added to the corresponding wells on the cell assay plate (10 μL/well) using an automatic program. The calcium ion fluorescence signal was recorded to determine whether the compound may have agonist activity. After 10 minutes, a B1R agonist [Lys-des-Arg9]-Bradykinin2 (10 μL/well) with a final concentration of 4.6 nM (EC80) was added to each of the wells to stimulate the generation of intracellular calcium ion flux signals. The Ca^++-dependent fluorescence signal was continuously monitored at a wavelength of 538 nm to analyze the inhibitory activity of the compound.
# 5. Data analysis: The data was collected and analyzed by a FLIPR program. The inhibitory (or agonist) activity of the compound at each concentration was evaluated by the fluorescence peak. The IC50 values of the compounds were calculated using EXCEL and PRISM programs.
row,IC50 [nM],SMILES
1,40,"COc1ccc(-c2ccc(NC(=O)N3CCC(C(C)(C)C)CC3)cc2-c2nn[nH]n2)cc1OC [Compound 1, 4-(tert-butyl)-N-(3′,4′-dimethoxy-2-(2H-tetrazol-5-yl)-[1,1′-biphenyl]-4-yl)piperidine-1-carboxamide]"
2,1330,"COc1ccc(-c2ccc(NC(=O)N3CCC4(CCCO4)CC3)cc2-c2nn[nH]n2)cc1OC [Compound 3, N-(3′,4′-dimethoxy-2-(2H-tetrazol-5-yl)-[1,1′-biphenyl]-4-yl)-1-oxy-8-azaspiro[4.5]decane-1-carboxamide]"
3,5320,"COc1ccc(-c2ccc(NC(=O)N3CCC4CCOC4C3)cc2-c2nn[nH]n2)cc1OC (stereo not shown) [Compound 4, N-(3′,4′-dimethoxy-2-(2H-tetrazol-5-yl)-[1,1′-biphenyl]-4-yl)hexahydrofuro[2,3-c]pyridine-6(2H)-carboxamide]"
4,162,"CCOc1ccc(-c2ccc(NC(=O)N3CCC(C)CC3)cc2-c2nn[nH]n2)cn1 [Compound 5, N-(4-(6-ethoxypyrid-3-yl)-3-(2H-tetrazol-5-yl)phenyl)-4-methylpiperidine-1-carboxamide]"
5,23.6,"CCOc1ccc(-c2ccc(NC(=O)N3CCC(C(C)(C)C)CC3)cc2-c2nn[nH]n2)cn1 [Compound 6, 4-(tert-butyl)-N-(4-(6-ethoxypyrid-3-yl)-3-(2H-tetrazol-5-yl)phenyl)piperidine-1-carboxamide]"
6,57.8,"CCOc1ccc(-c2ncc(NC(=O)N3CCC(C(C)(C)C)CC3)cc2-c2nn[nH]n2)cn1 [Compound 7, 4-(tert-butyl)-N-(6′-ethoxy-3-(2H-tetrazol-5-yl)-[2,3′-bipyridyl]-5-yl)piperidine-1-carboxamide]"
7,45.9,"CC(C)(C)C1CCN(C(=O)Nc2ccc(-c3cnn(C4CCC4)c3)c(-c3nn[nH]n3)c2)CC1 [Compound 9, 4-(tert-butyl)-N-(4-(1-cyclobutyl-1H-pyrazol-4-yl)-3-(2H-tetrazol-5-yl)phenyl) piperidine-1-carboxamide]"
8,18.3,"Cn1ncc2cc(-c3ccc(NC(=O)N4CCC(C(C)(C)C)CC4)cc3-c3nn[nH]n3)ccc21 [Compound 10, 4-(tert-butyl)-N-(4-(1-methyl-1H-indazol-5-yl)-3-(2H-tetrazol-5-yl)phenyl)piperidine-1-carboxamide]"
9,148,"COc1ccc(-c2ccc(NC(=O)N3CCC(C)(C)CC3)cc2-c2nn[nH]n2)cc1OC [Compound 12, N-(3′,4′-dimethoxy-2-(2H-tetrazol-5-yl)-[1,1′-biphenyl]-4-yl)-4,4-dimethylpiperidine-1-carboxamide]"
10,26.2,"COc1ccc(-c2ccc(NC(=O)N3CCC(C(C)(C)C)CC3)cc2-c2nn[nH]n2)cc1C [Compound 13, 4-(tert-butyl)-N-(4′-methoxy-3′-methyl-2-(2H-tetrazol-5-yl)-[1,1′-biphenyl]-4-yl)piperidine-1-carboxamide]"
11,23.5,"COc1ccc(-c2ccc(NC(=O)N3CCC(C(C)(C)C)CC3)cc2-c2nn[nH]n2)cc1Cl [Compound 14, 4-(tert-butyl)-N-(3′-chloro-4′-methoxy-2-(2H-tetrazol-5-yl)-[1,1′-biphenyl]-4-yl)piperidine-1-carboxamide]"
12,39.8,"CC(C)(C)C1CCN(C(=O)Nc2ccc(C(=O)OC3CCCCC3)c(-c3nn[nH]n3)c2)CC1 [Compound 15, cyclohexyl 4-(4-(tert-butyl)piperidine-1-formamido)-2-(2H-tetrazol-5-yl)benzoate]"
13,28.2,"CCOC(=O)c1ccc(NC(=O)N2CCC(C(C)(C)C)CC2)cc1-c1nn[nH]n1 [Compound 16, ethyl 4-(4-(tert-butyl)piperidine-1-formamido)-2-(2H-tetrazol-5-yl)benzoate]"
14,29.6,"CC(C)(C)C1CCN(C(=O)Nc2cc(F)c(C(=O)OC3CCCCC3)c(-c3nn[nH]n3)c2)CC1 [Compound 17, cyclohexyl 4-(4-(tert-butyl)piperidine-1-formamido)-2-fluoro-6-(2H-tetrazol-5-yl)benzoate]"
15,9.9,"CC(C)(C)C1CCN(C(=O)Nc2cc(F)c(-c3ccc(C(F)(F)F)nc3)c(-c3nn[nH]n3)c2)CC1 [Compound 18, 4-(tert-butyl)-N-(3-fluoro-5-(2H-tetrazol-5-yl)-4-(6-(trifluoromethyl)pyrid-3-yl)phenyl)piperidine-1-carboxamide]"
16,1140,"COc1ccc(-c2ccc(NS(=O)(=O)N3CCC(C)CC3)cc2-c2nn[nH]n2)cc1OC [Compound 19, N-(3′,4′-dimethoxy-2-(2H-tetrazol-5-yl)-[1,1′-biphenyl]-4-yl)-4-methylpiperidine-1-sulfamide]"
17,32.3,"COc1ccc(-c2c(F)cc(NC(=O)N3CCC(C)CC3)cc2-c2nn[nH]n2)cc1OC [Compound 20, N-(2-fluoro-3′,4′-dimethoxy-6-(2H-tetrazol-5-yl)-[1,1′-biphenyl]-4-yl)-4-methyl piperidine-1-carboxamide]"
18,21.1,"CC1CCN(C(=O)Nc2ccc(-c3ccc4c(cnn4C)c3)c(-c3nn[nH]n3)c2)CC1 [Compound 21, 4-methyl-N-(4-(1-methyl-1H-indazol-5-yl)-3-(2H-tetrazol-5-yl)phenyl)piperidine-1-carboxamide]"
19,30.2,"COc1ccc(-c2ccc(NC(=O)N3CCC(C)CC3)cc2-c2nn[nH]n2)cc1Cl [Compound 22, N-(3′-chloro-4′-methoxy-2-(2H-tetrazol-5-yl)-[1,1′-biphenyl]-4-yl)-4-methylpiperidine-1-carboxamide]"
20,44.6,"CC1CCN(C(=O)Nc2cc(F)c(C(=O)OC3CCCCC3)c(-c3nn[nH]n3)c2)CC1 [Compound 23, cyclohexyl 2-fluoro-4-(4-methylpiperidine-1-formamido)-6-(2H-tetrazol-5-yl)benzoate]"
21,35.7,"CCOC(=O)c1ccc(NC(=O)N2CCC(C)CC2)cc1-c1nn[nH]n1 [Compound 24, ethyl 4-(4-methylpiperidine-1-formamido)-2-(2H-tetrazol-5-yl)benzoate]"
22,54.4,"COc1ccc(-c2c(F)cc(NC(=O)N3CCC(C(F)(F)F)CC3)cc2-c2nn[nH]n2)cc1OC [Compound 26, N-(2-fluoro-3′,4′-dimethoxy-6-(2H-tetrazol-5-yl)-[1,1′-biphenyl]-4-yl)-4-(trifluoromethyl)piperidine-1-carboxamide]"
23,25.7,"Cn1ncc2cc(-c3ccc(NC(=O)N4CCC(C(F)(F)F)CC4)cc3-c3nn[nH]n3)ccc21 [Compound 27, N-(4-(1-methyl-1H-indazol-5-yl)-3-(2H-tetrazol-5-yl)phenyl)-4-(trifluoromethyl)piperidine-1-carboxamide]"
24,24.5,"COc1ccc(-c2ccc(NC(=O)N3CCC(C(F)(F)F)CC3)cc2-c2nn[nH]n2)cc1Cl [Compound 28, N-(3′-chloro-4′-methoxy-2-(2H-tetrazol-5-yl)-[1,1′-biphenyl]-4-yl)-4-(trifluoromethyl)piperidine-1-carboxamide]"
25,34.6,"O=C(OC1CCCCC1)c1c(F)cc(NC(=O)N2CCC(C(F)(F)F)CC2)cc1-c1nn[nH]n1 [Compound 29, cyclohexyl 2-fluoro-6-(2H-tetrazol-5-yl)-4-(4-(trifluoromethyl)piperidine-1-formamido)benzoate]"
26,35.4,CCOC(=O)c1ccc(NC(=O)N2CCC(C(F)(F)F)CC2)cc1-c1nn[nH]n1 [Compound 30]
27,19.2,"CCOc1ccc(-c2c(F)cc(NC(=O)N3CCC(C)CC3)cc2-c2nn[nH]n2)cn1 [Compound 31, N-(4-(6-ethoxypyrid-3-yl)-3-fluoro-5-(2H-tetrazol-5-yl)phenyl)-4-methylpiperidine-1-carboxamide]"
28,14.2,"Cn1ncc2cc(-c3c(F)cc(NC(=O)N4CCC(C(C)(C)C)CC4)cc3-c3nn[nH]n3)ccc21 [Compound 32, 4-(tert-butyl)-N-(3-fluoro-4-(1-methyl-1H-indazol-5-yl)-5-(2H-tetrazol-5-yl)phenyl)piperidine-1-carboxamide]"
